For 33 molecules, inhibition results are on record in ChEMBL document CHEMBL1268951, “Polyamide amino acids trimers as TAR RNA ligands and anti-HIV agents” (Bioorg Med Chem, 2010).

This assay can be described thus: Inhibition of HIV1 Tat/TAR interaction at 1 to 400 uM by FRET based competition assay.

Calls of active or inactive are those of the source. The calls are words filed in the database; no cut-off is given here. Where a SMILES comes first, the peptide text is derived from it.

Turning to `NCCCC[C@H](NC(=O)CN(CCNC(=O)[C@@H](N)Cc1ccccc1)C(=O)[C@H](CCCCNC(=O)OCc1ccccc1)NC(=O)OCc1ccccc1)C(=O)O`, the inhibition result is “Active”.
The entry for `C[C@H](N)C(=O)NCCN(CC(=O)N[C@@H](Cc1ccccc1)C(=O)O)C(=O)[C@H](Cc1ccccc1)NC(=O)OCc1ccccc1` is “Active”; for `N[C@@H](Cc1ccccc1)C(=O)NCCN(CC(=O)N[C@@H](Cc1ccccc1)C(=O)O)C(=O)[C@H](Cc1ccccc1)NC(=O)OCc1ccccc1` it is “Active”.
The entry for `NCCCC[C@H](N)C(=O)NCCN(CC(=O)N[C@@H](Cc1ccccc1)C(=O)O)C(=O)[C@H](Cc1ccccc1)NC(=O)OCc1ccccc1` is “Active”; for `N=C(N)NCCC[C@H](N)C(=O)NCCN(CC(=O)N[C@@H](Cc1ccccc1)C(=O)O)C(=O)[C@H](Cc1ccccc1)NC(=O)OCc1ccccc1` it is “Active”; for `C[C@H](N)C(=O)NCCN(CC(=O)N[C@@H](CCCCN)C(=O)O)C(=O)[C@H](CCCCNC(=O)OCc1ccccc1)NC(=O)OCc1ccccc1` it is “Active”.
Regarding `NCCCC[C@H](NC(=O)CN(CCNC(=O)[C@@H](N)CCCCN)C(=O)[C@H](CCCCNC(=O)OCc1ccccc1)NC(=O)OCc1ccccc1)C(=O)O`, the inhibition entry was “Active”.
The entry for `N=C(N)NCCC[C@H](N)C(=O)NCCN(CC(=O)N[C@@H](CCCCN)C(=O)O)C(=O)[C@H](CCCCNC(=O)OCc1ccccc1)NC(=O)OCc1ccccc1` is “Active”; for `C[C@H](N)C(=O)NCCN(CC(=O)N[C@@H](CCCNC(=N)N)C(=O)O)C(=O)[C@H](CCCN(C(=N)NC(=O)OCc1ccccc1)C(=O)OCc1ccccc1)NC(=O)OCc1ccccc1` it is “Active”; for `N=C(N)NCCC[C@H](NC(=O)CN(CCNC(=O)[C@@H](N)Cc1ccccc1)C(=O)[C@H](CCCN(C(=N)NC(=O)OCc1ccccc1)C(=O)OCc1ccccc1)NC(=O)OCc1ccccc1)C(=O)O` it is “Active”.
Turning to `N=C(N)NCCC[C@H](NC(=O)CN(CCNC(=O)[C@@H](N)CCCCN)C(=O)[C@H](CCCN(C(=N)NC(=O)OCc1ccccc1)C(=O)OCc1ccccc1)NC(=O)OCc1ccccc1)C(=O)O`, the inhibition result was “Active”.
The same measure for `N=C(N)NCCC[C@H](NC(=O)CN(CCNC(=O)[C@@H](N)CCCNC(=N)N)C(=O)[C@H](CCCN(C(=N)NC(=O)OCc1ccccc1)C(=O)OCc1ccccc1)NC(=O)OCc1ccccc1)C(=O)O`: “Active”; for `C[C@H](N)C(=O)NCCN(CC(=O)N[C@@H](C)C(=O)O)C(=O)[C@H](C)NC(=O)OCc1ccccc1`: “Active”; for `C[C@H](NC(=O)CN(CCNC(=O)[C@@H](N)Cc1ccccc1)C(=O)[C@H](C)NC(=O)OCc1ccccc1)C(=O)O`: “Active”.
The same measure for `C[C@H](NC(=O)CN(CCNC(=O)[C@@H](N)CCCCN)C(=O)[C@H](C)NC(=O)OCc1ccccc1)C(=O)O`: “Active”; for `C[C@H](NC(=O)CN(CCNC(=O)[C@@H](N)CCCNC(=N)N)C(=O)[C@H](C)NC(=O)OCc1ccccc1)C(=O)O`: “Active”; for `C[C@H](NC(=O)[C@@H](N)CCCNC(=N)N)C(=O)N[C@@H](CCCCN)C(=O)O` (H-Arg-Ala-Lys-OH): “Active”.
The entry for `N=C(N)NCCC[C@H](NC(=O)[C@H](CCCNC(=N)N)NC(=O)[C@@H](N)CCCNC(=N)N)C(=O)O` (H-Arg-Arg-Arg-OH) is “Active”; for `N=C(N)NCCC[C@H](NC(=O)[C@@H](N)CCCNC(=N)N)C(=O)N[C@@H](CCCCN)C(=O)O` (H-Arg-Arg-Lys-OH) it is “Active”.
Turning to `N=C(N)NCCC[C@H](NC(=O)[C@H](CCCCN)NC(=O)[C@@H](N)CCCNC(=N)N)C(=O)O` (H-Arg-Lys-Arg-OH), the inhibition entry is “Active”.
The same measure for `N=C(N)NCCC[C@H](N)C(=O)N[C@@H](CCCCN)C(=O)N[C@@H](CCCCN)C(=O)O` (H-Arg-Lys-Lys-OH): “Active”.
The same measure for `N=C(N)NCCC[C@H](NC(=O)[C@H](Cc1ccccc1)NC(=O)[C@@H](N)CCCNC(=N)N)C(=O)O` (H-Arg-Phe-Arg-OH): “Active”; for `N=C(N)NCCC[C@H](N)C(=O)N[C@@H](Cc1ccccc1)C(=O)N[C@@H](CCCCN)C(=O)O` (H-Arg-Phe-Lys-OH): “Active”; for `C[C@H](NC(=O)[C@H](C)NC(=O)[C@@H](N)CCCCN)C(=O)O` (H-Lys-Ala-Ala-OH): “Active”.
The entry for `C[C@H](NC(=O)[C@H](CCCCN)NC(=O)[C@@H](N)CCCCN)C(=O)O` (H-Lys-Lys-Ala-OH) is “Active”; for `C[C@H](NC(=O)[C@H](Cc1ccccc1)NC(=O)[C@@H](N)CCCCN)C(=O)O` (H-Lys-Phe-Ala-OH) it is “Active”.
As for `C[C@H](NC(=O)[C@@H](N)Cc1ccccc1)C(=O)N[C@@H](Cc1ccccc1)C(=O)O` (H-Phe-Ala-Phe-OH), the inhibition entry is “Active”.
Take `N=C(N)NCCC[C@H](NC(=O)[C@@H](N)Cc1ccccc1)C(=O)N[C@@H](CCCCN)C(=O)O` (H-Phe-Arg-Lys-OH): the inhibition result is “Active”.
The same measure for `N=C(N)NCCC[C@H](NC(=O)[C@@H](N)Cc1ccccc1)C(=O)N[C@@H](Cc1ccccc1)C(=O)O` (H-Phe-Arg-Phe-OH): “Active”.
The entry for `NCCCC[C@H](NC(=O)[C@H](CCCCN)NC(=O)[C@@H](N)Cc1ccccc1)C(=O)O` (H-Phe-Lys-Lys-OH) is “Active”.
The entry for `NCCCC[C@H](NC(=O)[C@@H](N)Cc1ccccc1)C(=O)N[C@@H](Cc1ccccc1)C(=O)O` (H-Phe-Lys-Phe-OH) is “Active”.
Consider `NCCCC[C@H](NC(=O)[C@H](Cc1ccccc1)NC(=O)[C@@H](N)Cc1ccccc1)C(=O)O` (H-Phe-Phe-Lys-OH), for which the inhibition result was “Active”.
For the molecule `N[C@@H](Cc1ccccc1)C(=O)N[C@@H](Cc1ccccc1)C(=O)N[C@@H](Cc1ccccc1)C(=O)O` (H-Phe-Phe-Phe-OH), the inhibition entry is “Active”.
